Key:
[1] = other: SDS-PAGE under mild denaturing conditions
Cry78Aa (Cry78Aa1) = target: T1, Cry78Aa (Cry78Aa1) (Bacillus thuringiensis, UniProt A0A3S6Q0Y2); settings: 20 mM Tris-HCl pH 8.0, 25 °C; one-site binding model; 50 mM sugar into 150 µM protein
T1 construct: ITC section says only 'Cry78Aa protein'
T1 sequence (A0A3S6Q0Y2 1-359 limits assumed): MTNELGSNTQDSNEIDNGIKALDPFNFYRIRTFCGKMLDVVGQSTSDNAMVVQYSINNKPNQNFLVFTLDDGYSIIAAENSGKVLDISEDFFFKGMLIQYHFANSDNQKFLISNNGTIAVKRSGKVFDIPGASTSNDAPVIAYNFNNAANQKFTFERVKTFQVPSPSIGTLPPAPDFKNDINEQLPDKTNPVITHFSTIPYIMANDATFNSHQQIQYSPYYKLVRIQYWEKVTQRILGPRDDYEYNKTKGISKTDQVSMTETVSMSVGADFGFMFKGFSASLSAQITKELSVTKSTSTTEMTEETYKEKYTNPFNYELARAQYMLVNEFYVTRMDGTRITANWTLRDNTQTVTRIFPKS

For Cry78Aa_(155-359), the “percent of the sample as oligomers or aggregates in 0.1% SDS” value [1] was ~30% of the total sample loaded onto each lane.

For `CC(=O)N[C@H]1C(O)O[C@H](CO)[C@H](O)[C@@H]1O` (stereo partly drawn) [GalNAc], the Kd (Cry78Aa (Cry78Aa1)) was roughly 9.8 mM.

In the case of `OC[C@H]1O[C@@H](O[C@H]2[C@H](O)[C@@H](O)C(O)O[C@@H]2CO)[C@H](O)[C@@H](O)[C@H]1O` (stereo partly drawn) [lactose], the Kd (Cry78Aa (Cry78Aa1)) is reported as roughly 10.2 mM.
